According to the supplement of paper PMC10307832:

Key:
Test in all cases: relative viability (nuclei count vs DMSO), 5 days (fraction); higher = more cells survive
[1] = compound: CN(C)CC1=CC(=CC=C1)N=C(C2=CC=CC=C2)C3=C(NC4=C3C=CC(=C4)C(=O)N(C)C)O + Cc1nc(NC(=O)N2CCC[C@H]2C(N)=O)sc1-c1ccnc(C(C)(C)C(F)(F)F)c1 [Alpelisib] (partner 2 µM)
Outline: (§1)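 Lung cancer cell lines in 1536-well plates got either a single drug or a fixed anchor-drug dose together with five library-drug doses (not always all listed) in √10 steps, by pin tool, on the day after seeding. Nuclei were counted after 5 days, and relative viability is the treated-to-vehicle ratio of nuclei counts. Values are medians of duplicate plates.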

[2] = compound: CN(C)CC1=CC(=CC=C1)N=C(C2=CC=CC=C2)C3=C(NC4=C3C=CC(=C4)C(=O)N(C)C)O + Cc1cc(Nc2cc(N3CCN(C)CC3)nc(Sc3ccc(NC(=O)C4CC4)cc3)n2)n[nH]1 [Tozasertib] (partner 0.1 µM)
Outline: as §1

[3] = compound: CN(C)CC1=CC(=CC=C1)N=C(C2=CC=CC=C2)C3=C(NC4=C3C=CC(=C4)C(=O)N(C)C)O + CCNC(=O)c1noc(-c2cc(C(C)C)c(O)cc2O)c1-c1ccc(CN2CCOCC2)cc1 [Luminespib] (partner 0.01 µM)
Outline: as §1

[4] = compound: CN(C)CC1=CC(=CC=C1)N=C(C2=CC=CC=C2)C3=C(NC4=C3C=CC(=C4)C(=O)N(C)C)O + Cc1nc(Nc2ncc(C(=O)Nc3c(C)cccc3Cl)s2)cc(N2CCN(CCO)CC2)n1 [Dasatinib] (partner 0.075 µM)
Outline: as §1

Cell Line	relative viability ([1]; first compound 0.08 µM)	relative viability ([1]; first compound 0.253 µM)	relative viability ([1]; first compound 0.8 µM)	relative viability ([1]; first compound 2.53 µM)	relative viability ([1]; first compound 8 µM)	relative viability ([2]; first compound 0.08 µM)	relative viability ([2]; first compound 0.253 µM)	relative viability ([2]; first compound 0.8 µM)	relative viability ([2]; first compound 2.53 µM)	relative viability ([2]; first compound 8 µM)	relative viability ([3]; first compound 0.08 µM)	relative viability ([3]; first compound 0.253 µM)	relative viability ([3]; first compound 0.8 µM)	relative viability ([3]; first compound 2.53 µM)	relative viability ([3]; first compound 8 µM)	relative viability ([4]; first compound 0.08 µM)	relative viability ([4]; first compound 0.253 µM)	relative viability ([4]; first compound 0.8 µM)	relative viability ([4]; first compound 2.53 µM)	relative viability ([4]; first compound 8 µM)
NCI-H661	0.67	0.635	0.37	0.685	0.614	0.374	0.345	0.355	0.319	0.367	0.922	0.904	0.964	0.865	0.811	0.979	0.747	0.679	0.8	0.856
NCI-H727	0.631	0.564	0.621	0.603	0.608	0.361	0.721	0.608	0.647	0.486	0.245	0.377	0.296	0.543	0.354	0.357	0.374	0.382	0.54	0.509
NCI-H838	1.06	0.956	0.977	0.883	0.934	0.276	0.27	0.274	0.264	0.268	0.386	0.355	0.254	0.331	0.341	0.304	0.304	0.247	0.281	0.284
NCI-H1355	0.802	0.724	0.681	0.838	0.849	0.551	0.616	0.414	0.539	0.428	0.687	0.713	0.735	0.764	0.66	0.776	0.776	0.538	0.82	0.737
NCI-H1395	1.04	0.948	1.1	0.87	0.964	0.85	0.831	0.789	0.746	0.771	0.594	0.778	0.672	0.653	0.86	0.402	0.373	0.455	0.433	0.399
NCI-H1437	1.01	0.996	0.951	0.906	0.971	0.431	0.443	0.37	0.387	0.4	1.12	1.14	1.2	1.06	1.2	0.393	0.402	0.392	0.336	0.416
NCI-H1651	1.05	0.985	1.03	0.807	0.826	0.621	0.755	0.71	0.595	0.692	0.892	0.782	0.894	0.639	0.87	0.414	0.459	0.443	0.284	0.386
NCI-H1666	1.07	0.98	1.01	1.18	0.946	0.642	0.59	0.675	0.603	0.868	1.02	1.02	1.08	1.01	1.02	0.826	0.836	0.907	0.747	0.843
